For assay [1], the system named is OTUB2 gene in cells with only ERα. Conditions: MCF-7 cells with only ERα, qPCR, 24 h. For orientation: In qPCR the cycle at which signal appears reflects the starting amount.
For assay [2], the target named is hERβ (Homo sapiens, UniProt Q92731). Conditions: HEC-1 reporter assay. (In general: In a reporter assay the amount or activity of a reporter protein is the signal.)
For assay [3], the target named is purified full-length human ERβ (Homo sapiens, UniProt Q92731). In words: biochemical.

pKi: −log10 of the molar value.

In general, pKi refers to the negative decadic logarithm of the Ki, by convention in mol/L. A higher pKi goes with a low Ki.

As to `C/C(=N\O)c1cc(-c2ccc(O)c(F)c2)ccc1O` [2c, (E)-1-(6-Hydroxy-3-(3-fluoro-4-hydroxyphenyl)phenyl)ethanone Oxime], the “Stimulation of OTUB2 in cells with only ERα” value in assay [1] is “no stimulation”. The “Reduction in potency on ERβ compared to 2a” value in assay [2] is about 4 fold.
As to `C/C(=N\O)c1cc(-c2ccc(O)cc2)ccc1O` [2a, (E)-1-(6-Hydroxy-3-(4-hydroxyphenyl)phenyl)ethanone Oxime], in assay [1], the “Stimulation of OTUB2 in cells with only ERα” value was “no stimulation”. The pKi in assay [3] was 8.96.
